Among the test systems are Bacillus subtilis 168; Escherichia coli BL21; Ralstonia solanacearum; Escherichia coli UB1005.
Holding throughout (assay): ≥ marks a high value that may be exact or a test limit, other limits are often not marked, values filed in µg/mL are converted to µM
The subject of experiment [1] is Candida albicans NCTC 1467.
In experiment [2] the test system is Escherichia coli NCTC 10418.
Experiment [3] deals with Klebsiella pneumoniae ATCC 43816.
The test system of experiment [4] is Pseudomonas aeruginosa ATCC 27853.
In experiment [5] the test system is Staphylococcus aureus NCTC 10788.
Experiment [6] has as its system Staphylococcus aureus NCTC 12493.
The test system of experiment [7] is Clavibacter michiganensis subsp. michiganensis.
For experiment [8], the system named is Pseudomonas syringae pv. tomato DC3000.
Experiment [9] has as its system Xanthomonas campestris pv. holcicola.
Experiment [10] deals with Xanthomonas oryzae pv. oryzae.
Experiment [11] has as its system Burkholderia cepacia ATCC 25416.
Experiment [12] has as its system Pseudomonas aeruginosa H374.
The subject of experiment [13] is Pseudomonas aeruginosa H547.
The subject of experiment [14] is Pseudomonas aeruginosa H744.
The test system of experiment [15] is Pseudomonas aeruginosa K799.
Experiment [16] deals with Pseudomonas aeruginosa Z61.
In experiment [17] the test system is Salmonella enterica subsp. enterica serovar Typhimurium ATCC 14028s.
For experiment [18], the system named is Aspergillus oryzae NBRC 100959.
Experiment [19] deals with Candida viswanathii NBRC 10321.
In experiment [20] the test system is Escherichia coli NBRC 3972.
In experiment [21] the test system is Micrococcus luteus NBRC 3333.
For experiment [22], the system named is Staphylococcus epidermidis NBRC 12993.
Experiment [23] deals with Escherichia coli NBRC 14237.
The test system of experiment [24] is Saccharomyces cerevisiae NBRC 10217.
Experiment [25] deals with Staphylococcus aureus NBRC 12732.
The subject of experiment [26] is Bacillus cereus ATCC 10876.
The test system of experiment [27] is Enterococcus faecalis ATCC 29212.
The test system of experiment [28] is Salmonella enterica subsp. enterica serovar Typhimurium ATCC 14028.
In experiment [29] the test system is Staphylococcus aureus ATCC 6538.
Experiment [30] relates to Streptococcus agalactiae ATCC 27956.
Experiment [31] relates to Streptococcus dysgalactiae subsp. dysgalactiae ATCC 27957.
In experiment [32] the test system is Streptococcus equi subsp. zooepidemicus ATCC 43079.

Usually MIC stands for the lowest concentration that inhibits growth of the organism.

≈ marks a conversion by molar mass, not a printed value. Bounds are passed on as bounds.

Consider `CC[C@H](C)[C@@H]1NC(=O)[C@H](CC(C)C)NC(=O)[C@@H](NC(=O)[C@H](Cc2ccccc2)NC(=O)[C@H](CC(C)C)NC(=O)[C@H](CCCCN)NC(=O)[C@H](Cc2ccc(O)cc2)NC(=O)[C@H](CC(C)C)NC(=O)[C@@H](NC(=O)[C@H](CCCCN)NC(=O)[C@@H](NC(=O)[C@@H](NC(=O)[C@H](C)NC(=O)CNC(=O)[C@H](CC(C)C)NC(=O)[C@H](C)NC(=O)[C@@H](N)Cc2ccccc2)C(C)C)[C@@H](C)O)C(C)C)CSSC[C@@H](C(=O)O)NC(=O)[C@H](CCCCN)NC(=O)[C@H](CCCN=C(N)N)NC(=O)[C@H]([C@@H](C)O)NC1=O` [FALGAVTKVLYKLFCLITRKC], for which the minimal inhibitory concentration (MIC) in experiment [1] is at least 64 µM; in [2], at least 128 µM; in experiment [3], at least 128 µM; in experiment [4], above 128 µM; in experiment [5] it was 4 µM (≈ 9.54 µg/mL); in [6] it was 8 µM (≈ 19.1 µg/mL).
Consider `CC[C@H](C)[C@H](NC(=O)CNC(=O)[C@H](C)NC(=O)CN)C(=O)NCC(=O)N1CCC[C@H]1C(=O)NCC(=O)N[C@@H](Cc1cnc[nH]1)C(=O)N[C@@H](CCCN=C(N)N)C(=O)N[C@@H](CCCN=C(N)N)C(=O)N[C@H](C(=O)N[C@@H](Cc1c[nH]c2ccccc12)C(=O)N[C@@H](CCCN=C(N)N)C(=O)N[C@@H](CCCN=C(N)N)C(=O)N[C@@H](Cc1c[nH]c2ccccc12)C(=O)N1CCC[C@H]1C(=O)N[C@@H](CCCN=C(N)N)C(=O)N[C@@H](CCCN=C(N)N)C(=O)N[C@@H](CCCN=C(N)N)C(=O)N[C@@H](Cc1c[nH]c2ccccc12)C(=O)N[C@@H](CCCN=C(N)N)C(=O)O)[C@@H](C)O` [GAGIGPGHRRTWRRWPRRRWR], for which the MIC against Bacillus subtilis 168 was 16 µM (≈ 42.7 µg/mL); in experiment [7], 16 µM (≈ 42.7 µg/mL); with Escherichia coli BL21 it was 16 µM (≈ 42.7 µg/mL); in [8] it was 4 µM (≈ 10.7 µg/mL); in the experiment with Ralstonia solanacearum it was 8 µM (≈ 21.4 µg/mL); in experiment [9], 16 µM (≈ 42.7 µg/mL). Moreover, the MIC in experiment [10] amounted to 4 µM (≈ 10.7 µg/mL).
As for `CC[C@H](C)[C@H](NC(=O)CNC(=O)[C@@H](NC(=O)[C@H](CCCCN)NC(=O)[C@H](CCCCN)NC(=O)[C@@H](NC(=O)[C@H](Cc1ccccc1)NC(=O)[C@H](CCCCN)NC(=O)[C@H](CCCCN)NC(=O)[C@H](Cc1c[nH]c2ccccc12)NC(=O)[C@H](CCCCN)NC(=O)[C@@H](N)CCCCN)[C@@H](C)CC)[C@@H](C)CC)C(=O)NCC(=O)N[C@@H](C)C(=O)N[C@H](C(=O)N[C@@H](CC(C)C)C(=O)N[C@H](C(=O)N[C@H](C(=O)N1CCC[C@H]1C(=O)NCC(=O)N[C@@H](C)C(=O)N[C@@H](CCCCN)C(=O)N[C@@H](CCCCN)C(=O)O)[C@@H](C)O)[C@@H](C)O)C(C)C` [KKWKKFIKKIGIGAVLTTPGAKK], the minimal inhibitory concentration (MIC) in [11] was 25.2 µM (≈ 64 µg/mL); in the experiment with Escherichia coli UB1005, 1.57 µM (≈ 4 µg/mL); in [12], 3.15 µM (≈ 8 µg/mL); in experiment [13], 6.3 µM (≈ 16 µg/mL); in experiment [14], 1.57 µM (≈ 4 µg/mL); in experiment [15], 25.2 µM (≈ 64 µg/mL). The figures for the MIC in [16] and in experiment [17] were 12.6 µM (≈ 32 µg/mL) and 1.57 µM (≈ 4 µg/mL), respectively.
`CC[C@H](C)[C@H](NC(=O)[C@H](CC(C)C)NC(=O)[C@@H](N)CCCN=C(N)N)C(=O)N[C@@H](CCCCN)C(=O)N[C@@H](CCCN=C(N)N)C(=O)N[C@@H](Cc1ccc(O)cc1)C(=O)N[C@@H](CC(C)C)C(=O)N[C@@H](CCCN=C(N)N)C(=O)N[C@@H](CCCN=C(N)N)C(=O)N[C@@H](CCSC)C(=O)N[C@@H](Cc1c[nH]c2ccccc12)C(=O)O` [RLIKRYLRRMW]: the MIC was at least 126 µM in experiment [18]; at least 62.9 µM in [19]; at least 503 µM in experiment [20]; at least 62.9 µM in experiment [21]; at least 126 µM in [22].
With `CC[C@H](C)[C@H](NC(=O)[C@@H](N)[C@@H](C)O)C(=O)N[C@@H](CC(N)=O)C(=O)N[C@@H](CCCCN)C(=O)N[C@@H](CCCCN)C(=O)N[C@@H](Cc1ccccc1)C(=O)N[C@@H](CCCN=C(N)N)C(=O)N[C@@H](Cc1c[nH]c2ccccc12)C(=O)N[C@@H](Cc1cnc[nH]1)C(=O)NCC(=O)N[C@@H](CCCCN)C(=O)N[C@@H](CCCN=C(N)N)C(=O)N[C@@H](CCCCN)C(=O)N[C@@H](Cc1c[nH]c2ccccc12)C(=O)N[C@@H](Cc1c[nH]c2ccccc12)C(=O)N[C@@H](CC(C)C)C(=O)N[C@@H](CCCN=C(N)N)C(=O)N[C@@H](Cc1ccccc1)C(=O)N[C@H](C(=O)N[C@@H](CCCCN)C(=O)N[C@@H](CCC(N)=O)C(=O)O)C(C)C` [TINKKFRWHGKRKWWLRFVKQ], the minimal inhibitory concentration (MIC) was determined as 3.12 µM (≈ 8.89 µg/mL) in experiment [23], 6.25 µM (≈ 17.8 µg/mL) in experiment [24] and 3.12 µM (≈ 8.89 µg/mL) in experiment [25].
On to `CC[C@H](C)[C@H](NC(=O)[C@H](CC(C)C)NC(=O)[C@H](CC(N)=O)NC(=O)CNC(=O)[C@H](Cc1ccccc1)NC(=O)[C@@H](NC(=O)[C@H](CCCN=C(N)N)NC(=O)[C@@H](NC(=O)[C@H](CC(C)C)NC(=O)[C@H](CCC(N)=O)NC(=O)[C@H](Cc1ccc(O)cc1)NC(=O)[C@@H](N)Cc1c[nH]c2ccccc12)[C@@H](C)CC)[C@@H](C)O)C(=O)N[C@@H](Cc1cnc[nH]1)C(=O)N[C@@H](CCC(N)=O)C(=O)N[C@@H](CCCCN)C(=O)N[C@@H](Cc1ccc(O)cc1)C(=O)N[C@@H](CCCN=C(N)N)C(=O)N[C@@H](CCCCN)C(=O)N[C@@H](CC(C)C)C(=O)N[C@@H](CC(C)C)C(=O)N[C@@H](CCC(=O)O)C(=O)N[C@@H](C)C(=O)N[C@@H](Cc1ccc(O)cc1)C(=O)N[C@@H](CCCN=C(N)N)C(=O)N[C@@H](CCCCN)C(=O)N[C@@H](CC(C)C)C(=O)N[C@@H](CCCN=C(N)N)C(=O)N[C@@H](CC(=O)O)C(=O)O` [WYQLIRTFGNLIHQKYRKLLEAYRKLRD], for which the minimum inhibitory concentration (MIC) in [26] is 1.66 µM (≈ 6 µg/mL); in experiment [27] it was 0.552 µM (≈ 2 µg/mL); in [4] it was above 8.83 µM; in experiment [28], above 8.83 µM; in experiment [29] it was 0.414 µM (≈ 1.5 µg/mL); in experiment [30], 11 µM (≈ 39.9 µg/mL). Besides, the minimum inhibitory concentration (MIC) in [31] and in [32] was 11 µM (≈ 39.9 µg/mL) each time.

These data come from DBAASP.
